Assay results: PubChem BioAssay (NCI)
“And” between values parts separate entries of the source, which are not always exact repeats. Identical values can stand only once.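 The compound was tested at five concentrations on cells cultured in 96-well plates, with a 48-hour exposure period. GI50 = concentration required for 50% inhibition of growth. TGI denotes the concentration required for complete inhibition of growth.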

What follows are compounds tested on HOP-62 NSCLC (assay: NCI tumour cell line growth inhibition, 48 h).

| Compound | TGI | GI50 |
| --- | --- | --- |
| CCc1ccc(/C=C/c2ccc(O)c3ncccc23)[n+](C)c1 | > 100 µM |  |
| Cc1ccc(Nc2oc(-c3ccccc3)nc2[P+](c2ccccc2)(c2ccccc2)c2ccccc2)cc1 | 3.24 µM | 1.34 µM |
| CS(=O)(=O)Nc1cc(-c2ccc3ncnc(Nc4c(Cl)ccc5c4OCO5)c3c2)cnc1Cl | 3.53 µM | 0.156 µM |
| COc1ccccc1Nc1ncc(-c2ccccc2)o1 | > 25 µM | > 25 µM |
| Nc1ccn(C2OC(CO)C(O)C2O)c(=O)n1 (stereo not given) |  | 0.237 µM |
| CN(C)c1ccc(N=Nc2ccccn2)c(O)c1 | > 54 µM | 0.311 µM |
| CN1CC[C@@H](c2c(O)cc(O)c3c(=O)cc(-c4ccc(C(F)(F)F)cc4Cl)oc23)[C@@H]1CO | 43.5 µM | 17.2 µM |
| O=C(NNc1ccccc1)C(=O)NNc1ccccc1 | > 100 µM | > 100 µM |
| Nc1c(C(=O)c2ccccc2)cnn1-c1ccc(F)cc1 | > 25 µM | > 25 µM |
| COc1cc2c3c(c1OC)-c1cc4c(cc1CC3(C#N)N(C(=O)c1ccccc1)CC2)OCO4 (stereo not given) | > 76.1 µM |  |
| CCOC(=O)c1c(-c2ccc(OC)cc2)c(C#N)c2c(C#N)c(N)nn2c1N | 22.1 µM | 3.32 µM |
| COC(=O)C1=CN(CC2=CC(=O)C(C)=CC2=O)C=C(C(=O)OC)C1c1cccc(OC)c1 | 38.9 µM | 19.3 µM |

The compounds below were run on A498 renal (assay: NCI tumour cell line growth inhibition, 48 h).

| Compound | GI50 | TGI |
| --- | --- | --- |
| CCc1ccc(/C=C/c2ccc(O)c3ncccc23)[n+](C)c1 | 1.42 µM | > 63 µM |
| Cc1ccc(Nc2oc(-c3ccccc3)nc2[P+](c2ccccc2)(c2ccccc2)c2ccccc2)cc1 | 0.697 µM | 2.36 µM |
| CS(=O)(=O)Nc1cc(-c2ccc3ncnc(Nc4c(Cl)ccc5c4OCO5)c3c2)cnc1Cl | < 0.0135 µM | 0.127 µM |
| COc1ccccc1Nc1ncc(-c2ccccc2)o1 | > 25 µM | > 25 µM |
| Nc1ccn(C2OC(CO)C(O)C2O)c(=O)n1 (stereo not given) | 12 µM and 4.38 µM and 20.8 µM | > 100 µM and 424 µM |
| CN(C)c1ccc(N=Nc2ccccn2)c(O)c1 | 3.02 µM | 19.1 µM |
| CN1CC[C@@H](c2c(O)cc(O)c3c(=O)cc(-c4ccc(C(F)(F)F)cc4Cl)oc23)[C@@H]1CO | 14.2 µM | 27.6 µM |
| O=C(NNc1ccccc1)C(=O)NNc1ccccc1 | > 100 µM | > 100 µM |
| Nc1c(C(=O)c2ccccc2)cnn1-c1ccc(F)cc1 | > 25 µM | > 25 µM |
| COc1cc2c3c(c1OC)-c1cc4c(cc1CC3(C#N)N(C(=O)c1ccccc1)CC2)OCO4 (stereo not given) |  | 82.3 µM |
| CCOC(=O)c1c(-c2ccc(OC)cc2)c(C#N)c2c(C#N)c(N)nn2c1N | 1.73 µM | 7.88 µM |
| COC(=O)C1=CN(CC2=CC(=O)C(C)=CC2=O)C=C(C(=O)OC)C1c1cccc(OC)c1 | 18.6 µM | 34.6 µM |

What follows are compounds tested on NCI/ADR-RES ovarian (assay: NCI tumour cell line growth inhibition, 48 h).

| Compound | GI50 | TGI |
| --- | --- | --- |
| CCc1ccc(/C=C/c2ccc(O)c3ncccc23)[n+](C)c1 | > 100 µM | > 100 µM |
| Cc1ccc(Nc2oc(-c3ccccc3)nc2[P+](c2ccccc2)(c2ccccc2)c2ccccc2)cc1 | 1.48 µM | 3.1 µM |
| CS(=O)(=O)Nc1cc(-c2ccc3ncnc(Nc4c(Cl)ccc5c4OCO5)c3c2)cnc1Cl | 0.477 µM | 4.19 µM |
| COc1ccccc1Nc1ncc(-c2ccccc2)o1 | > 25 µM | > 25 µM |
| Nc1ccn(C2OC(CO)C(O)C2O)c(=O)n1 (stereo not given) | 0.532 µM |  |
| CN(C)c1ccc(N=Nc2ccccn2)c(O)c1 | 0.281 µM | > 27.6 µM |
| CN1CC[C@@H](c2c(O)cc(O)c3c(=O)cc(-c4ccc(C(F)(F)F)cc4Cl)oc23)[C@@H]1CO | 19.1 µM | 51.6 µM |
| O=C(NNc1ccccc1)C(=O)NNc1ccccc1 | > 100 µM | > 100 µM |
| Nc1c(C(=O)c2ccccc2)cnn1-c1ccc(F)cc1 | > 25 µM | > 25 µM |
| COc1cc2c3c(c1OC)-c1cc4c(cc1CC3(C#N)N(C(=O)c1ccccc1)CC2)OCO4 (stereo not given) |  | > 100 µM |
| CCOC(=O)c1c(-c2ccc(OC)cc2)c(C#N)c2c(C#N)c(N)nn2c1N | 3.57 µM | > 100 µM |
| COC(=O)C1=CN(CC2=CC(=O)C(C)=CC2=O)C=C(C(=O)OC)C1c1cccc(OC)c1 | 12.4 µM | 60.2 µM |

What follows are compounds tested on UACC-257 melanoma (assay: NCI tumour cell line growth inhibition, 48 h).

| Compound | GI50 | TGI |
| --- | --- | --- |
| CCc1ccc(/C=C/c2ccc(O)c3ncccc23)[n+](C)c1 | 16.9 µM | > 100 µM |
| Cc1ccc(Nc2oc(-c3ccccc3)nc2[P+](c2ccccc2)(c2ccccc2)c2ccccc2)cc1 | 0.718 µM | 2.75 µM |
| CS(=O)(=O)Nc1cc(-c2ccc3ncnc(Nc4c(Cl)ccc5c4OCO5)c3c2)cnc1Cl | 0.208 µM | 3.32 µM |
| COc1ccccc1Nc1ncc(-c2ccccc2)o1 | > 25 µM | > 25 µM |
| Nc1ccn(C2OC(CO)C(O)C2O)c(=O)n1 (stereo not given) | 14.4 µM | > 500 µM |
| CN(C)c1ccc(N=Nc2ccccn2)c(O)c1 | 1.24 µM | 9.04 µM |
| CN1CC[C@@H](c2c(O)cc(O)c3c(=O)cc(-c4ccc(C(F)(F)F)cc4Cl)oc23)[C@@H]1CO | 26.6 µM | 46.7 µM |
| O=C(NNc1ccccc1)C(=O)NNc1ccccc1 | > 100 µM | > 100 µM |
| Nc1c(C(=O)c2ccccc2)cnn1-c1ccc(F)cc1 | > 25 µM | > 25 µM |
| COc1cc2c3c(c1OC)-c1cc4c(cc1CC3(C#N)N(C(=O)c1ccccc1)CC2)OCO4 (stereo not given) |  | > 100 µM |
| CCOC(=O)c1c(-c2ccc(OC)cc2)c(C#N)c2c(C#N)c(N)nn2c1N | 8.18 µM | > 100 µM |
| COC(=O)C1=CN(CC2=CC(=O)C(C)=CC2=O)C=C(C(=O)OC)C1c1cccc(OC)c1 | 16.3 µM | 31 µM |

These compounds were tested on MCF7 breast (assay: NCI tumour cell line growth inhibition, 48 h).

| Compound | GI50 | TGI |
| --- | --- | --- |
| CCc1ccc(/C=C/c2ccc(O)c3ncccc23)[n+](C)c1 | 7.99 µM | > 90.7 µM |
| Cc1ccc(Nc2oc(-c3ccccc3)nc2[P+](c2ccccc2)(c2ccccc2)c2ccccc2)cc1 | 0.433 µM | 1.98 µM |
| CS(=O)(=O)Nc1cc(-c2ccc3ncnc(Nc4c(Cl)ccc5c4OCO5)c3c2)cnc1Cl | 0.0524 µM | 1.47 µM |
| COc1ccccc1Nc1ncc(-c2ccccc2)o1 | > 25 µM | > 25 µM |
| Nc1ccn(C2OC(CO)C(O)C2O)c(=O)n1 (stereo not given) | 0.0408 µM | > 100 µM and 434 µM and > 500 µM |
| CN(C)c1ccc(N=Nc2ccccn2)c(O)c1 | 0.271 µM | > 100 µM |
| CN1CC[C@@H](c2c(O)cc(O)c3c(=O)cc(-c4ccc(C(F)(F)F)cc4Cl)oc23)[C@@H]1CO | 14.5 µM | 38.3 µM |
| O=C(NNc1ccccc1)C(=O)NNc1ccccc1 | 5.67 µM | > 100 µM |
| Nc1c(C(=O)c2ccccc2)cnn1-c1ccc(F)cc1 | > 25 µM | > 25 µM |
| COc1cc2c3c(c1OC)-c1cc4c(cc1CC3(C#N)N(C(=O)c1ccccc1)CC2)OCO4 (stereo not given) |  | > 100 µM |
| CCOC(=O)c1c(-c2ccc(OC)cc2)c(C#N)c2c(C#N)c(N)nn2c1N | 3.31 µM | > 100 µM |
